Measurements reported in EP0018104A2, “Tetrahydroisoquinolines, their production and the compounds and pharmaceutical compositions containing them for use in the prevention or treatment of hypertension” (Takeda Chemical Industries, Ltd., priority 1979, dated 1980).

Target: T1, angiotensin I converting enzyme (ACE) (Oryctolagus cuniculus, UniProt P12822)
T1 construct: prepared from the lungs of albino rabbit according to the method described by Wallace et al; from tissue; host or cells: lungs of albino rabbit
T1 sequence (P12822 34-1310): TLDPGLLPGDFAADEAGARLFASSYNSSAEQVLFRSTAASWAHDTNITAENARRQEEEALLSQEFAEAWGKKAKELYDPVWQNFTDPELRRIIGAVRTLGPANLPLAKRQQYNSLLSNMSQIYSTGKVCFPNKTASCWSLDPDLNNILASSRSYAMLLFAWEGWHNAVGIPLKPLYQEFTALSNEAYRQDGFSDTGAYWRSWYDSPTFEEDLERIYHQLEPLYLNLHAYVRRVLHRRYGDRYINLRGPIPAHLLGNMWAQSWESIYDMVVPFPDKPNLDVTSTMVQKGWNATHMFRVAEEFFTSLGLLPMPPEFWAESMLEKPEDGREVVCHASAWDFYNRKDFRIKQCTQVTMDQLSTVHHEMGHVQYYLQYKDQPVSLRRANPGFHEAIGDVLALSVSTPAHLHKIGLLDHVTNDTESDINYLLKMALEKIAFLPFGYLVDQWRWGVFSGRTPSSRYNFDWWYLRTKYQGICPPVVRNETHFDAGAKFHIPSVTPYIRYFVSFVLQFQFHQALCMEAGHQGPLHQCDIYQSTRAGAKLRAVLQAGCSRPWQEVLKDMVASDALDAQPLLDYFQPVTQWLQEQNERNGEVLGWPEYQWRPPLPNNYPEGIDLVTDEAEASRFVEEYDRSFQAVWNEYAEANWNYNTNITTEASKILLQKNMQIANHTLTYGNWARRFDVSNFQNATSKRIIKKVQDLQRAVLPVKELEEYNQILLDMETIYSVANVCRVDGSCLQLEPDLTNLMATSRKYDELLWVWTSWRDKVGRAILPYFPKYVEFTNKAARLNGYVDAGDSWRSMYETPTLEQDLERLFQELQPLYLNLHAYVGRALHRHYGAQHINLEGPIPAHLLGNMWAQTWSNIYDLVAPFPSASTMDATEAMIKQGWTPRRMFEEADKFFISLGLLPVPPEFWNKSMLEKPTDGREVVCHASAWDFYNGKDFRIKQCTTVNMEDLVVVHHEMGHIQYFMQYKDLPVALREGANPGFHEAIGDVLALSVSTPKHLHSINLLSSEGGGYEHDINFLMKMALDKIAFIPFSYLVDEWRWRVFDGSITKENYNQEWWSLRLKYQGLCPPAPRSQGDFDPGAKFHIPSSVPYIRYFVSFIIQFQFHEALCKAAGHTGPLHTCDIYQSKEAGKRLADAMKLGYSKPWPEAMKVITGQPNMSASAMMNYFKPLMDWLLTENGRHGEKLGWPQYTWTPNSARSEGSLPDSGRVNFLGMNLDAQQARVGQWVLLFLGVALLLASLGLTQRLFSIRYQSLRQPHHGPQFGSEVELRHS
Assay: Inhibition of angiotensin I converting enzyme (HHL substrate, hippuric acid colorimetry, modified Cushman method)
Format: biochemical, albino rabbit
Settings: ACE from rabbit lung, 37°C, one hour, read-out: Inhibitory Activity on ACE (%); for inhibition at 1 µM: Concentration 1 µM; for inhibition at 10 µM: Concentration 10 µM
Experimental: Inhibitions of Angiotensin I Converting Enzyme by the Compounds of this Invention.
The experiment was conducted in accordance with a modification of the method described by Cushman et al. [Biochemical Pharmacology, Vol. 20, p1637(1971)] using an angiotensin I converting enzyme (ACE) prepared from the lungs of albino rabbit according to the method described by Wallace et al. [American Journal of Physiology, Vol 234, page R141(1978)]. That is, using hippuryl-L-histidyl-L-leucin (HHL) as the substrate, the ACE inhibitory activity was determined in terms of percentage inhibitation on the amount of hippurie acid produced by ACE when the present compound was added. A solution of the compound of the present invention dissolved in an 0.02 to 2% dimethyl sulfoxide-500 mMpotassium phosphate buffer solution (pH 8.3, containing 300 mM sodium chloride) was added to 100 µℓ of ACE (protein concentration, 20 mg/mℓ) and 100 µℓ of 1.25 mM HHL. In this experiment a potassium phosphate buffer solution containing dimethyl sulfoxide at a concentration equal to that of the test solution was used as a control. After incubating the solution at 37°C for one hour, 150 µℓ of 1N hydrochloric acid were added to the solution to terminate the reaction. After 1 mℓ of ethyl acetate was added, the solution was centrifuged at 3000 r.p.m. for 10 minutes. An 0.5 mℓ aliquot was separated from the ethyl acetate layer and dried at a temperature below 50°C under a nitrogen. gas stream. The residue was mixed with mℓ of 1M aqueous sodium chloride and the mixture was subjected to colorimetry at a wavelength of 228 nm.

inhibition at 1 µM [%]	inhibition at 10 µM [%]	Structure (SMILES)
69	93	CC(=O)SCC(C)C(=O)N1Cc2cc(Br)ccc2CC1C(=O)O (centres unmarked) [Example 42, 2-(3-acetylthio-2-methylpropiony)-7-tromo-1,2,3,4-tetrahydroisoquinoline-3-carboxylic acid]
66	97	CC(=O)SCC(C)C(=O)N1Cc2cc(N3CCCCC3)ccc2CC1C(=O)O (centres unmarked) [Example 44, 2-(3-acetylthio-2-methylpropionyl)-7-piperidino-1,2,3,4-tetrahydroisoquinoline-3-carbozylic acid]
60	82	CC(CS)C(=O)N1Cc2cc3c(cc2C[C@H]1C(=O)O)OCO3 (stereo partly drawn) [Example 52, (3S)-2-(3-mercapto-2-methylpropionul)-1,7-mezhylene-dioxy-1,2,3,4-tetrahydroisoquinoline-3-earboxylie acid]
71	77	CC(C)(C)c1ccc2c(c1)CN(C(=O)C(CS)CS)C(C(=O)O)C2 (centres unmarked) [Example 71, 7-tert-butyl-2-(3-mercapto-2-mereaptomethylprionyl)-1,2,3,4-tetrahydroisoquinoline-3-carboxylic acid]
